Measured values reported in patent US11104632B1, “Metabolically stable vanillin derivatives for the treatment of hypoxia” (King Abdulaziz University, priority 2020, dated 2021).

Assays:
Hb [1] = molecular target: T1, Hb (Homo sapiens, UniProt P68871+P69905, E7V); experiment: Hb oxygen equilibrium study (P50 shift, Hemox Analyzer) on lysate of treated SS cells; type: cell-based; details: intact SS cells, read-out: increase in Hb oxygen affinity (ΔP50); for percent P50 decrease (increase in Hb oxygen affinity) at 2000 µM: 2 mM compound; for percent P50 decrease (increase in Hb oxygen affinity) at 5000 µM: 5 mM compound
T1 construct: Leftover blood samples from patients with homozygous SS were obtained and utilized; from tissue; host or cells: blood (red blood cells) of patients with homozygous SS
From the text: (§1) In vitro Hemoglobin Modification, Oxygen Equilibrium and Antisickling Studies Using Human homozygous Sickle cell (SS) Blood
(§2) Materials and General Procedure: Leftover blood samples from patients with homozygous SS were obtained and utilized, based on an approved IRB protocol at the Children's Hospital of Philadelphia, with informed consent.
(§3) Experimental Procedure: The MMA series of compounds (MMA-202, MMA-204, and MMA-405) and the positive control vanillin were studied for their abilities to inhibit hypoxia-induced RBC sickling (RBC morphology study), increase Hb oxygen, and/or modify Hb (adduct formation) as previously published.^31,33 Briefly, homozygous SS blood (hematocrit: 20%) suspensions were incubated under air in the absence or presence of 2 and/or 5 mM concentration of test compounds at 37° C. for 1 hr. Following, the suspensions were incubated under hypoxic condition (2.5% oxygen) at 37° C. for 2 hr. Aliquot samples were fixed with 2% glutaraldehyde solution without exposure to air, and then subjected to microscopic morphological analysis. The residual samples were washed in phosphate-buffered saline, and hemolyzed in hypotonic lysis buffer for the Hb oxygen equilibrium and Hb adduct experiments. […] Another aliquot from the lysate was also subjected to Hb adduct formation study using cation-exchange HPLC (Hitachi D-7000 Series, Hitachi Instruments, Inc., San Jose, Calif.) with a weak cation-exchange column (Poly CAT A: 30 mm×4.6 mm, Poly LC, Inc., Columbia, Md.). To determine the binding of the MMA compounds to either α- or β-globin chains, the hemolysates were subjected to reversed-phase (RP) HPLC on a Hitachi D-7000 HSM Series, using a Jupiter 5 μm C-4 50×4.6 mm column, (Phenomenex®, Torrence, Calif.) and a gradient from 20% to 60% acetonitrile in 0.3% trifluoroacetic acid in 15 minutes, with UV detection at 215 nm.

α- or β-globin chains = molecular target: T2, α- or β-globin chains (Homo sapiens, UniProt P68871+P69905, E7V); experiment: Reversed-phase HPLC of hemolysates for binding to α- or β-globin chains; type: cell-based; details: reverse-phase HPLC; 2 mM and/or 5 mM; intact SS cells
T2 construct: Leftover blood samples from patients with homozygous SS were obtained and utilized; from tissue; host or cells: blood (red blood cells) of patients with homozygous SS
Method: as §3

Hb [2] = molecular target: T1, Hb; experiment: Hb adduct formation study by cation-exchange HPLC after incubation with intact SS cells; type: cell-based; details: 2 mM and/or 5 mM
Method: as §3, with “To determine the binding of the MMA compounds to either α- or β-globin chains, the hemolysates were subjected to reversed-phase (RP) HPLC on a Hitachi D-7000 HSM Series, using a Jupiter 5 μm C-4 50×4.6 mm column, (Phenomenex®, Torrence, Calif.) and a gradient from 20% to 60% acetonitrile in 0.3% trifluoroacetic acid in 15 minutes, with UV detection at 215 nm.” left out

intact SS cells = experiment: Antisickling study (RBC morphology) under hypoxia with homozygous SS blood; type: cell-based, human; details: SS blood hematocrit 20%, 2.5% oxygen, 37° C., 2 hr
Method: as §1, §2
as §3, with “Following,” for “Experimental Procedure: The MMA series of compounds (MMA-202, MMA-204, and MMA-405) and the positive control vanillin were studied for their abilities to inhibit hypoxia-induced RBC sickling (RBC morphology study), increase Hb oxygen, and/or modify Hb (adduct formation) as previously published.^31,33 Briefly, homozygous SS blood (hematocrit: 20%) suspensions were incubated under air in the absence or presence of 2 and/or 5 mM concentration of test compounds at 37° C. for 1 hr. Following,”

Hb [3] = molecular target: Hb (Homo sapiens, UniProt P68871+P69905); experiment: In vitro time-dependent Hb oxygen equilibrium study using normal whole blood; details: 2 mM; normal whole blood 30% hct; 37° C.; 1, 4 and 24 hr
[4] = in-vivo; aldehyde protected by L-cysteine; cited from earlier work

melting point | Compound | percent P50 decrease (increase in Hb oxygen affinity) at 2000 µM (Hb [1]) | percent P50 decrease (increase in Hb oxygen affinity) at 5000 µM (Hb [1]) | globin chain bound (α- or β-globin chains) | Hb modification (adduct formation) (Hb [2]) | RBC sickling (intact SS cells; 1 mM compound) | RBC sickling (intact SS cells; 2 mM compound) | RBC sickling (intact SS cells; 5 mM compound) | time course of Hb oxygen affinity activity (% P50 shift) over 24 hr (Hb [3]) | extension of Vanillin half-life [4]
49 °C | COC(=O)C(=O)c1ccc(OC)cc1 [MMA-201, methyl 2-(4-methoxyphenyl)-2-oxoacetate] | – | – | – | – | – | – | – | – | –
– | C=CC(=O)c1ccc(OC)cc1 [MMA-202, 1-(4-methoxyphenyl)prop-2-en-1-one] | 13% | 51% | bind to both the α-chain and β-chain | significant Hb modification | 48% | 28% | 15% | sustained throughout the 24 hr experiment | –
146 °C | COc1ccc(C(=O)C(N)=O)cc1 [MMA-203, 2-(4-methoxyphenyl)-2-oxoacetamide] | – | – | – | – | – | – | – | – | –
– | C#CC(=O)c1ccc(OC)cc1 [MMA-204, 1-(4-methoxyphenyl)prop-2-yn-1-one] | 29% | 62% | bind exclusively with the β-chain | – | – | 57% | 44% | – | –
– | C=CC(=O)c1ccc(OC2CCCCO2)cc1 (centres unmarked) [MMA-205, 1-(4-((tetrahydro-2H-pyran-2-yl)oxy)phenyl)prop-2-en-1-one] | 21% | 39% | bind exclusively with the β-chain | significant Hb modification | – | 46% | 27% | – | –
– | COc1cc(C2NC(C(=O)O)CS2)ccc1O (centres unmarked) [thiazolidine complex of Vanillin] | – | – | – | – | – | – | – | – | 2 fold
– | COc1cc(C=O)ccc1O [vanillin] | 12% | 27% | – | – | – | 57% | 36% | – | –
